In patent US12662707B2, “MYC amplification drives resistance to pan-RAS inhibitors in pancreatic cancer” (The Trustees of Columbia University in the City of New York, priority 2024, dated 2026):

How the values were obtained:
pERK in KPF/FC tumors = test: PK/PD in KPF/FC tumors (pERK IHC); type: in vivo; details: Mus musculus, read-out: EC50, pERK inhibition vs RMC-7977 concentration in tumors
Method: Tumor formation in KPF/FC (KrasLSL.G12D/+; p53flox/flox; Pdx1-Cre) mice was monitored by bi-weekly palpations until the detection of a mass, which was then confirmed by ultrasound. Tumor-bearing mice were randomized and assigned into groups (n=3/dose/timepoint). Single dose of RMC-7977 was administered orally at 10 mg/kg, 25 mg/kg and 50 mg/kg. The same vehicle formulation was used for the control group. Whole blood and tissue (tumors and colons) were harvested at indicated time points preserved as previously described (See Xenograft studies section).
Whole blood, tumor, colon and skin tissue concentrations of RMC-7977 were determined using liquid chromatography-tandem mass spectrometry (LC-MS/MS) methods. Tissue samples were homogenized with a 5× or 10× volume of homogenization buffer (methanol/15 mM PBS (1:2; v:v) or 15 mM PBS with 10% methanol). […] After thorough mixing and centrifugation, the supernatant was directly analyzed on a Sciex 6500+ triple quadrupole mass spectrometer equipped with an ACQUITY or Shimadzu UPLC system. […] RMC-7977 and IS (verapamil or terfenadine) were detected by positive electrospray ionization using multiple reaction monitoring (RMC-7977: m/z 865.4/706.4 or m/z 865.3/833.5; verapamil: m/z 455.2/164.9; terfenadine: m/z 472.3/436.4). The lower limit of quantification was 0.5 ng/mL or 2.0 ng/mL for blood, tumor, and other tissue. […]

human PDAC organoids = test: Organoid drug treatment and viability assay; type: cell-based; details: Matrigel-embedded human PDAC organoids; 6 days
Method: Organoids were cultured at 37° C. in 5% CO2. Cells were seeded in growth factor reduced Matrigel (Corning; Cat. #356231) domes and incubated with human organoid medium formulated as follows: Advanced DMEM/F12-based-conditioned medium, 1×B27 supplement, 10 mM HEPES, 2 mM GlutaMAX, 10 mM nicotinamide, 1.25 mM N-acetylcysteine, 50 ng/mL mEGF, 100 ng/mL hFGF10, […] hGastrin I, 500 nM A83-01, Noggin 100 ng/mL, 1×Wnt-3A conditioned 10% FBS DMEM (50% by volume) and 1×R-spondin Conditioned Basal Medium (10% by volume)^52,53
Organoids were dissociated using TrypLE Express (Thermo Fisher, Cat. #12604054) and cells were seeded into ultra-low attachment 384-well plates at 1×10^3 cells per well into […] of culture media, consisting of 10% Matrigel and 90% human organoid medium. […] Cell viability was assessed 6 days post-treatment using a Cell-TiterGlo 3D Cell Viability assay (Promega, G9683), according to the manufacturer's instructions. […] was read using a FLUOstar Omega microplate reader. Technical triplicates were analyzed for each biological replicate and a total of three biological replicates were done for each cell line. CTG assay readouts were plotted as a function of log molar [inhibitor] and a 4-parameter sigmoidal concentration response model was fitted to the data. […]

human PDAC explants = test: Ex vivo human PDAC explants, IHC for pERK and CC3; type: cell-based
Method: Explant culture sponges and optimized culture media were prepared as previously described in Hasselluhn and Decker-Farrell et al.^54. Human tissue samples were obtained from de-identified patients undergoing resection surgeries, primarily pancreaticoduodenectomy (Whipple) or distal pancreatectomy, at New York-Presbyterian/Columbia University Irving Medical Center. Upon receipt of a resected human PDAC fragment (n=4), each tissue sample was cut into […] slices using a Compresstome. Any tumor tissue remaining after sectioning was fixed in 4% paraformaldehyde (Santa Cruz Biotechnology, sc-281692) for 2 hours, at 4° C. as the Day 0 control. […] Each well of a 24 well plate contained one explant slice placed between bottom sponge (1 cm^3) and a top sponge (2-3 mm thick). After 24 hours culture, explants were collected and fixed in 4% PFA for 2 hours. Fixed tissue was then transferred to 70% ethanol and paraffin embedded for long-term storage and further analysis. All tissues were fixed for up to 24 hours using 10% neutral buffered formalin and then moved to 70% ethanol for long term storage. All stainings were performed on 4-μm tissue sections. Sections were deparaffinized using a Leica XL ST5010 autostainer, after which slides were subjected to heat-activated epitope retrieval. […] Slides were further blocked in serum for 1 hour, and primary antibodies were added for overnight incubation at 4° C. […] Following incubation, ImmPACT DAB peroxidase (Vector Laboratories, SK-4100) was used to develop the stain and hematoxylin was used as nuclear counterstain. Stained slides were imaged at 40× magnification. Quantitative analyses of IHC images were performed using ImageJ.

[1] = explants treated for 24 hours, 10-100 nM

CCn1c(-c2cc(N3CCN(C4CC4)CC3)cnc2[C@H](C)OC)c2c3cc(ccc31)-c1csc(n1)C[C@H](NC(=O)[C@H]1[C@@H]3COC[C@@H]31)C(=O)N1CCC[C@H](N1)C(=O)OCC(C)(C)C2 [RMC-7977]
EC50 (pERK in KPF/FC tumors): 321 nM
potency in concentration-response cell viability assays (human PDAC organoids): low nanomolar potency
apoptosis marker cleaved caspase 3 (CC3) (IHC) (human PDAC explants; [1]): increase
pERK expression (IHC) (human PDAC explants; [1]): concentration-dependent decrease
concentration of maximal changes in pERK and CC3 (human PDAC explants; highest concentration tested): 100 nM
response of the KRASWT explant model (human PDAC explants; one of the four explant models, KRASWT): sensitive
